Assay results reported in patent publication US5472954A, “Cyclodextrin complexation” (priority 1993, dated 1995).
Values after ≈ are worked out from the molar mass of the structure shown.

Assays:
[1] = ΔH, ΔS and stability constant (Kc) of drug-HPβCD MS 0.6 complexes, effect of PVP (Example 17); format: physicochemical; conditions: for ΔH / ΔS: HPβCD MS 0.6 complex
Method: The effect of polyvinylpyrrolidone (PVP) on the enthalpy (ΔH) and the entropy (ΔS) of the stability constant (Kc) of the drug-cyclodextrin complex was determined.
An excess amount of the drug was added to water containing 0, 0.1, 0.25 or 0.5% (w/v) PVP and various amounts of HPβCD or HPαCD.

physchem [2] = assay: physchem
physchem [3] = assay: physchem; remark: listed apart in the source
physchem [4] = assay: physchem; remark: listed apart in the source
physchem [5] = assay: physchem; remark: listed apart in the source
[6] = Effect of polymers on the solubilization of various compounds in aqueous HPβCD solutions (Example 14)
Method: An excess amount of the compound to be tested was added to each solvent and the suspensions which formed were heated in sealed containers to 120° C. The solubility of salicylic acid was determined in acidic (HCl) solution.

[7] = Effect of previously prepared solid HPβCD-polymer complexing agent on solubility (Example 13); format: physicochemical
Method: The resultant solutions were heated in sealed containers to 120° C. and maintained at that temperature for 30 minutes, then were lyophilized. The solids thus obtained were ground with a mortar and pestle.
The solid cyclodextrin/polymer products were reconstituted with water to afford solutions containing 9.88% (w/v) HPβCD and 0.12% (w/v) PVP, 0.12% (w/v) or CMC 0.12% (w/v) HPMC. The solubilities (S) of three drugs in these solutions and in an aqueous solution containing 10% (w/v) HPβCD without added polymer were then determined as follows:
An excess amount of each drug was added to each of the four cyclodextrin solutions and the solutions were sonicated in an ultrasonic bath for 3 hours, then allowed to equilibrate for 60 hours at room temperature (23° C.). […] However, by separate preparation of the cyclodextrin/polymer complexing agent as illustrated here, one can readily avoid heating drugs which are unstable at elevated temperature.

[8] = HPβCD with CMC / HPβCD without polymer (S6)
[9] = HPβCD with HPMC / HPβCD without polymer (S8)
[10] = HPβCD with PVP / HPβCD without polymer (S7)

SMILES: C[C@]12CC[C@@H]3c4ccc(O)cc4CC[C@H]3[C@@H]1CC[C@@H]2O [17β-Estradiol, 17β-estradiol]
- ΔH ([1]; PVP 0.00% w/v): -17 kcal/mol
- ΔS ([1]; PVP 0.00% w/v): -151 J mol^-1 K^-1
- ΔH ([1]; PVP 0.10% w/v): -18 kcal/mol
- ΔS ([1]; PVP 0.10% w/v): -166 J mol^-1 K^-1
- ΔH ([1]; PVP 0.25% w/v): -21.4 kcal/mol
- ΔS ([1]; PVP 0.25% w/v): -213 J mol^-1 K^-1
- ΔH ([1]; PVP 0.50% w/v): -19.4 kcal/mol
- ΔS ([1]; PVP 0.50% w/v): -185 J mol^-1 K^-1

SMILES: CC(=O)Nc1nnc(S(N)(=O)=O)s1 [Acetazolamide, acetazolamide]
- solubility (physchem [2]; 0.25% cmc in water): 840 µg/mL (≈ 3.78 mM)
- solubility (physchem [2]; 0.25% cmc, 10% hpbcd): 3110 µg/mL (≈ 14 mM)
- solubility (physchem [2]; 10% ethanol in water, organic solvent or mixture): 1110 µg/mL (≈ 4.99 mM)
- solubility (physchem [2]; 10% ethanol, 0.25% cmc, organic solvent or mixture): 750 µg/mL (≈ 3.37 mM)
- solubility (physchem [2]; 10% ethanol, 10% hpbcd, organic solvent or mixture): 2190 µg/mL (≈ 9.85 mM)
- solubility (physchem [2]; 10% hpbcd in water): 2520 µg/mL (≈ 11.3 mM)
- solubility (physchem [2]; ethanol, cmc, hpbcd, organic solvent or mixture): 2500 µg/mL (≈ 11.2 mM)
- solubility (physchem [2]; water): 700 µg/mL (≈ 3.15 mM)
- ΔH ([1]; PVP 0.00% w/v): -4.4 kcal/mol
- ΔS ([1]; PVP 0.00% w/v): -26.0 J mol^-1 K^-1
- ΔH ([1]; PVP 0.10% w/v): -6.17 kcal/mol
- ΔS ([1]; PVP 0.10% w/v): -49.6 J mol^-1 K^-1
- ΔH ([1]; PVP 0.25% w/v): -5.93 kcal/mol
- ΔS ([1]; PVP 0.25% w/v): -46.2 J mol^-1 K^-1
- ΔH ([1]; PVP 0.50% w/v): -6.17 kcal/mol
- ΔS ([1]; PVP 0.50% w/v): -49.8 J mol^-1 K^-1
- increase in apparent stability constant ([1]; HPβCD complex, 0.25% PVP (w/v)): 13%
- solubility (physchem [3]; 0.10% cmc, 10% hpβcd): 3600 µg/mL (≈ 16.2 mM)
- solubility (physchem [3]; 0.25% cmc, 10% hpβcd): 3210 µg/mL (≈ 14.4 mM)
- solubility (physchem [3]; 0.50% cmc, 10% hpβcd): 3750 µg/mL (≈ 16.9 mM)
- solubility (physchem [3]; aqueous 10% hpβcd ms=0.9): 2520 µg/mL (≈ 11.3 mM)
- solubility (physchem [4]; 0.25% cmc + 10% hpbetacd): 3110 µg/mL
- solubility (physchem [4]; aqueous 0.25% cmc): 840 µg/mL (≈ 3.78 mM)
- solubility (physchem [4]; aqueous 10% hpbetacd): 2520 µg/mL (≈ 11.3 mM)
- solubility (physchem [4]; water): 700 µg/mL (≈ 3.15 mM)
- solubility at 72 h (physchem [5]; 0.25% pvp, 10% hpβcd): 3660 µg/mL (≈ 16.5 mM)
- solubility at 72 h (physchem [5]; 10% hpβcd ms 0.7): 2800 µg/mL (≈ 12.6 mM)
- solubility at 72 h (physchem [5]; aqueous 0.25% pvp): 1050 µg/mL (≈ 4.72 mM)
- solubility at 72 h (physchem [5]; water): 700 µg/mL (≈ 3.15 mM)

SMILES: Cc1nnc2n1-c1ccc(Cl)cc1C(c1ccccc1)=NC2 [Alprazolam]
- solubility (physchem [4]; 0.25% cmc + 10% hpbetacd): 1550 µg/mL
- solubility (physchem [4]; aqueous 0.25% cmc): 180 µg/mL (≈ 0.583 mM)
- solubility (physchem [4]; aqueous 10% hpbetacd): 1280 µg/mL (≈ 4.15 mM)
- solubility (physchem [4]; water): 70 µg/mL (≈ 0.227 mM)

SMILES: COc1ccc(O)c(C(C)(C)C)c1 [Butylated hydroxyanisole]
- S2 solubility ([6]; 0.25% (w/v) CMC): 400 µg/mL
- S4 solubility ([6]; 0.25% (w/v) HPMC): 280 µg/mL
- S3 solubility ([6]; 0.25% (w/v) PVP): 1240 µg/mL
- S6 solubility ([6]; 0.25% CMC and 10% HPβCD MS=0.6 (salicylic acid: acidic HCl solution)): 14300 µg/mL
- S8 solubility ([6]; 0.25% HPMC and 10% HPβCD MS=0.6 (salicylic acid: acidic HCl solution)): 15500 µg/mL
- S7 solubility ([6]; 0.25% PVP and 10% HPβCD MS=0.6 (salicylic acid: acidic HCl solution)): 15800 µg/mL
- S5 solubility ([6]; 10% (w/v) HPβCD MS=0.6 (salicylic acid: acidic HCl solution)): 13900 µg/mL
- solubility ratio [6, 8]: 1.03
- solubility ratio [6, 9]: 1.12
- solubility ratio [6, 10]: 1.14
- S1 solubility ([6]; water): 400 µg/mL

SMILES: CC12CCC(CC1=O)C2(C)C (stereo not drawn) [Camphor]
- solubility ([6]; 0.25% hpmc + 10% hpβcd): 13300 µg/mL
- solubility ([6]; 0.25% pvp + 10% hpβcd): 13700 µg/mL
- solubility ([6]; aqueous 0.25% cmc): 2010 µg/mL (≈ 13.2 mM)
- solubility ([6]; aqueous 0.25% cmc, 10% hpβcd): 13800 µg/mL (≈ 90.6 mM)
- solubility ([6]; aqueous 0.25% hpmc): 1920 µg/mL (≈ 12.6 mM)
- solubility ([6]; aqueous 0.25% pvp): 2200 µg/mL (≈ 14.5 mM)
- solubility ([6]; aqueous 10% hpβcd): 12700 µg/mL (≈ 83.4 mM)
- solubility ([6]; water): 1840 µg/mL (≈ 12.1 mM)

SMILES: CC(C)(O)C(Cl)(Cl)Cl [Chlorbutol]
- solubility ([6]; 0.25% hpmc + 10% hpβcd): 29900 µg/mL
- solubility ([6]; aqueous 0.25% cmc): 8410 µg/mL (≈ 47.4 mM)
- solubility ([6]; aqueous 0.25% cmc, 10% hpβcd): 29300 µg/mL (≈ 165 mM)
- solubility ([6]; aqueous 0.25% hpmc): 8150 µg/mL (≈ 45.9 mM)
- solubility ([6]; aqueous 0.25% pvp): 8410 µg/mL (≈ 47.4 mM)
- solubility ([6]; aqueous 10% hpβcd): 28600 µg/mL (≈ 161 mM)
- solubility ([6]; water): 8110 µg/mL (≈ 45.7 mM)

SMILES: C=C1CC[C@H](O)C/C1=C/C=C1\CCC[C@]2(C)[C@@H]([C@H](C)CCCC(C)C)CC[C@@H]12 [Cholecalciferol]
- solubility ([6]; 0.25% hpmc + 10% hpβcd): 690 µg/mL
- solubility ([6]; 0.25% pvp + 10% hpβcd): 760 µg/mL
- solubility ratio [6, 8]: 1.18
- solubility ratio [6, 9]: 1.14
- solubility ratio [6, 10]: 1.25
- solubility ([6]; aqueous 0.25% cmc, 10% hpβcd): 720 µg/mL (≈ 1.87 mM)
- solubility ([6]; aqueous 10% hpβcd): 610 µg/mL (≈ 1.59 mM)

SMILES: Clc1ccccc1C(c1ccccc1)(c1ccccc1)n1ccnc1 [Clotrimazole, clotrimazole]
- solubility (physchem [4]; 0.25% cmc + 10% hpbetacd): 1400 µg/mL
- solubility (physchem [4]; aqueous 10% hpbetacd): 1200 µg/mL (≈ 3.48 mM)
- solubility at 72 h (physchem [5]; 0.25% pvp, 10% hpβcd): 1800 µg/mL (≈ 5.22 mM)
- solubility at 72 h (physchem [5]; 10% hpβcd ms 0.7): 1200 µg/mL (≈ 3.48 mM)

SMILES: Clc1ccc(COC(Cn2ccnc2)c2ccc(Cl)cc2Cl)cc1 (stereo not drawn) [Econazole, econazole]
- solubility (physchem [4]; 0.25% cmc + 10% hpbetacd): 7410 µg/mL
- solubility (physchem [4]; aqueous 0.25% cmc): 600 µg/mL (≈ 1.57 mM)
- solubility (physchem [4]; aqueous 10% hpbetacd): 4860 µg/mL (≈ 12.7 mM)
- solubility (physchem [4]; water): 570 µg/mL (≈ 1.49 mM)
- solubility at 72 h (physchem [5]; 0.25% pvp, 10% hpβcd): 5650 µg/mL (≈ 14.8 mM)
- solubility at 72 h (physchem [5]; 10% hpβcd ms 0.7): 5220 µg/mL (≈ 13.7 mM)
- solubility at 72 h (physchem [5]; aqueous 0.25% pvp): 640 µg/mL (≈ 1.68 mM)
- solubility at 72 h (physchem [5]; water): 570 µg/mL (≈ 1.49 mM)
- solubility ([7]; 9.88% hpbetacd + 0.12% cmc, 9.88% (w/v) HPβCD and 0.12% (w/v) CMC, read-out: S3 solubility): 5200 µg/mL
- solubility ([7]; 9.88% hpbetacd + 0.12% hpmc, 9.88% (w/v) HPβCD and 0.12% (w/v) HPMC, read-out: S4 solubility): 6320 µg/mL
- solubility ([7]; 9.88% hpbetacd + 0.12% pvp, 9.88% (w/v) HPβCD and 0.12% (w/v) PVP, read-out: S2 solubility): 5570 µg/mL
- solubility ([7]; 10% hpbetacd, 10% (w/v) HPβCD, read-out: S1 solubility): 4860 µg/mL (≈ 12.7 mM)
